Results reported in PubChem BioAssay AID248 (DTP/NCI, 2004).
Values joined by “and” are separate entries in the source; they are usually repeats but may differ in a detail not shown here. Equal entries are not always repeated. Toxic doses and inconclusive results are not listed. Cut-off read from the data, not from the text of the source: active = T/C of 150% or more; inactive = T/C below 125%. Peptide text beside a SMILES is read from it. * marks the point of attachment. Cbz = O=C(OCc1ccccc1)*; Bn = c1ccc(C*)cc1

Test system: L1210 leukemia ip in BDF1 mice, survival T/C
Experiment: NCI In Vivo Anticancer Drug Screen. Data for tumor model L1210 Leukemia (intraperitoneal) in B6D2F1 (BDF1) mice
Settings: endpoint: mean survival time, higher = longer survival
Summary of the method: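 Survival endpoint. Drug-treated group vs vehicle group, expressed as T divided by C. Tumor passaged by transplantation.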

[1] = dose: 100.0 mg/kg/injection, schedule: Q04DX003 (ip), vehicle: saline with Tween-80
[2] = dose: 200.0 mg/kg/injection, schedule: Q04DX003 (ip), vehicle: saline with Tween-80
[3] = dose: 400.0 mg/kg/injection, schedule: Q04DX003 (ip), vehicle: saline with Tween-80
[4] = dose: 100.0 mg/kg/injection, schedule: Q01DX009 (ip), vehicle: Klucel (hydroxypropylcellulose) (HPC)
[5] = dose: 200.0 mg/kg/injection, schedule: Q01DX009 (ip), vehicle: Klucel (hydroxypropylcellulose) (HPC)
[6] = dose: 400.0 mg/kg/injection, schedule: Q01DX009 (ip), vehicle: Klucel (hydroxypropylcellulose) (HPC)
[7] = dose: 50.0 mg/kg/injection, schedule: Q01DX009 (ip), vehicle: saline
[8] = dose: 100.0 mg/kg/injection, schedule: Q01DX009 (ip), vehicle: saline
[9] = dose: 100.0 mg/kg/injection, schedule: Q04DX003 (ip), vehicle: saline
[10] = dose: 100.0 mg/kg/injection, schedule: Q01DX001 (ip), vehicle: Klucel (hydroxypropylcellulose) (HPC)
[11] = dose: 100.0 mg/kg/injection, schedule: Q04DX003 (ip), vehicle: Klucel (hydroxypropylcellulose) (HPC)
[12] = dose: 200.0 mg/kg/injection, schedule: Q01DX001 (ip), vehicle: Klucel (hydroxypropylcellulose) (HPC)
[13] = dose: 200.0 mg/kg/injection, schedule: Q04DX003 (ip), vehicle: Klucel (hydroxypropylcellulose) (HPC)
[14] = dose: 400.0 mg/kg/injection, schedule: Q01DX001 (ip), vehicle: Klucel (hydroxypropylcellulose) (HPC)
[15] = dose: 400.0 mg/kg/injection, schedule: Q04DX003 (ip), vehicle: Klucel (hydroxypropylcellulose) (HPC)
[16] = dose: 200.0 mg/kg/injection, schedule: Q01DX009 (ip), vehicle: saline
[17] = dose: 25.0 mg/kg/injection, schedule: Q01DX009 (ip), vehicle: Klucel (hydroxypropylcellulose) (HPC)
[18] = dose: 50.0 mg/kg/injection, schedule: Q01DX009 (ip), vehicle: Klucel (hydroxypropylcellulose) (HPC)
[19] = dose: 25.0 mg/kg/injection, schedule: Q01DX001 (ip), vehicle: Klucel (hydroxypropylcellulose) (HPC)
[20] = dose: 50.0 mg/kg/injection, schedule: Q01DX001 (ip), vehicle: Klucel (hydroxypropylcellulose) (HPC)

Measured: T/C

O=C(OC12CCCC1CC2)c1ccc([N+](=O)[O-])cc1 (stereo not drawn)
inactive: [1] 91 % of control | [2] 103 % of control | [3] 100 % of control

Cc1cc(C)c(S(=O)(=O)Nc2cc([N+](=O)[O-])ccc2C)c(C)c1
inactive: [4] 97 % of control | [5] 92 % of control | [6] 92 % of control

CN1CC=C(/C=C/c2cccc3ccccc23)CC1
inactive: dose: 25.0 mg/kg/injection, schedule: Q01DX009 (ip), vehicle: saline 100 % of control | [7] 103 % of control | [8] 114 % of control | [9] 103 % of control

COC(=O)C(C(=O)Oc1ccc([N+](=O)[O-])cc1)c1ccccc1 (stereo not drawn)
inactive: [10] 97 % of control | [11] 101 % of control | [12] 97 % of control | [5] 102 % of control | [13] 103 % of control | [14] 100 % of control | [6] 109 % of control | [15] 101 % of control

NCCCCc1nc(N)nc(N)c1-c1ccc(Cl)cc1
inactive: dose: 25.0 mg/kg/injection, schedule: Q01DX001 (ip), vehicle: saline 104 % of control | dose: 50.0 mg/kg/injection, schedule: Q01DX001 (ip), vehicle: saline 96 % of control | dose: 100.0 mg/kg/injection, schedule: Q01DX001 (ip), vehicle: saline 102 % of control

O=C(Nc1ccc(Cl)cc1)C(O)C(O)C(O)C(O)CO (stereo not drawn)
inactive: [7] 100 % of control | [8] 103 % of control | [16] 100 % of control

CCCCCCCCCCCCCCCCOc1ccc(S(=O)(=O)N2CCOCC2)cc1[N+](=O)[O-]
inactive: dose: 75.0 mg/kg/injection, schedule: Q04DX003 (ip), vehicle: saline 103 % of control | [10] 97 % of control | dose: 150.0 mg/kg/injection, schedule: Q04DX003 (ip), vehicle: saline 93 % of control | [12] 104 % of control | dose: 300.0 mg/kg/injection, schedule: Q04DX003 (ip), vehicle: saline 95 % of control | [14] 104 % of control

COc1ccccc1OC
inactive: [9] 97 % of control | dose: 200.0 mg/kg/injection, schedule: Q04DX003 (ip), vehicle: saline 103 % of control | dose: 400.0 mg/kg/injection, schedule: Q04DX003 (ip), vehicle: saline 86 % of control

COc1cccc(/C(C)=N\OC(=O)N(C)C)c1
inactive: dose: 100.0 mg/kg/injection, schedule: Q01DX001 (ip), vehicle: carboxymethylcellulose (CMC) 95 % of control | dose: 200.0 mg/kg/injection, schedule: Q01DX001 (ip), vehicle: carboxymethylcellulose (CMC) 95 % of control | dose: 400.0 mg/kg/injection, schedule: Q01DX001 (ip), vehicle: carboxymethylcellulose (CMC) 98 % of control

[CH3][Sn]([CH3])([CH3])[Cl]
inactive: dose: 0.12 mg/kg/injection, schedule: Q04DX002 (ip), vehicle: saline 108 % of control | dose: 0.25 mg/kg/injection, schedule: Q04DX002 (ip), vehicle: saline 105 % of control | dose: 0.5 mg/kg/injection, schedule: Q04DX002 (ip), vehicle: saline 108 % of control

CC(=O)Nc1ccc(CCCCc2cccc(C#N)c2)cc1
inactive: [7] 95 % of control | [8] 100 % of control | [16] 97 % of control

ICC1OC(c2ccccc2)OC2C(CI)OC(c3ccccc3)OC12 (stereo not drawn)
inactive: dose: 75.0 mg/kg/injection, schedule: Q01DX001 (ip), vehicle: carboxymethylcellulose (CMC) 95 % of control | dose: 150.0 mg/kg/injection, schedule: Q01DX001 (ip), vehicle: carboxymethylcellulose (CMC) 93 % of control | dose: 300.0 mg/kg/injection, schedule: Q01DX001 (ip), vehicle: carboxymethylcellulose (CMC) 88 % of control

CCCCCCCCCCCCOc1ccc(C2(c3ccc(CCCCCCCCCCCC)cc3)CCCCC2)cc1
inactive: [10] 101 % of control | [12] 101 % of control | [14] 106 % of control

Cc1cc(C(C)(C)C)c(O)c(C(C)(C)C)c1
inactive: [17] 110 % of control | [18] 103 % of control | [4] 113 % of control | [11] 103 % of control | [13] 114 % of control | [15] 95 % of control

O=C(N/N=C\c1cc(Br)cc(Br)c1O)N/N=C/c1cc(Br)cc(Br)c1O
inactive: dose: 100.0 mg/kg/injection, schedule: Q04DX002 (ip), vehicle: saline with Tween-80 108 % of control | dose: 200.0 mg/kg/injection, schedule: Q04DX002 (ip), vehicle: saline with Tween-80 95 % of control | dose: 400.0 mg/kg/injection, schedule: Q04DX002 (ip), vehicle: saline with Tween-80 92 % of control

COC(=O)C(CC(C)C)NC(=O)C(CSCc1ccccc1)NC(=O)OCc1ccccc1 (stereo not drawn) (Cbz-Cys(Bn)-Leu-OMe; configuration not given here)
inactive: dose: 100.0 mg/kg/injection, schedule: Q04DX003 (ip), vehicle: DMSO 102 % of control | dose: 200.0 mg/kg/injection, schedule: Q04DX003 (ip), vehicle: DMSO 104 % of control | dose: 400.0 mg/kg/injection, schedule: Q04DX003 (ip), vehicle: DMSO 96 % of control

Clc1ccc(Nc2cc[n+]3ccccc3c2)cc1Cl
inactive: [19] 98 % of control | [20] 96 % of control | [10] 102 % of control and 117 % of control

Cc1c2ccccc2c(CCl)c2ccc3ccccc3c12
inactive: dose: 12.5 mg/kg/injection, schedule: Q01DX009 (ip), vehicle: carboxymethylcellulose (CMC) 110 % of control | dose: 25.0 mg/kg/injection, schedule: Q01DX009 (ip), vehicle: carboxymethylcellulose (CMC) 113 % of control

COc1ccc(OC)c(CCc2cc(OC)ccc2OC)c1
inactive: dose: 12.5 mg/kg/injection, schedule: Q01DX009 (ip), vehicle: other 93 % of control | dose: 25.0 mg/kg/injection, schedule: Q01DX009 (ip), vehicle: other 96 % of control | dose: 50.0 mg/kg/injection, schedule: Q01DX009 (ip), vehicle: other 98 % of control

CC(C)(C)C1CCC(=O)C(Cl)C1 (stereo not drawn)
inactive: [4] 94 % of control | dose: 100.0 mg/kg/injection, schedule: Q04DX003 (ip), vehicle: alcohol 94 % of control | [5] 95 % of control | dose: 200.0 mg/kg/injection, schedule: Q04DX003 (ip), vehicle: alcohol 92 % of control | dose: 400.0 mg/kg/injection, schedule: Q04DX003 (ip), vehicle: alcohol 87 % of control

O=C(COc1ccc(Cl)cc1)Nc1cccc(C(F)(F)F)c1
inactive: [4] 96 % of control | [11] 102 % of control | [5] 89 % of control | [13] 93 % of control | [6] 91 % of control | [15] 93 % of control

CC1=CC(=O)CC(C)(C)C1(O)/C=C/C(C)=C/C(=O)O (stereo not drawn)
inactive: dose: 12.5 mg/kg/injection, schedule: Q04DX003 (ip), vehicle: Klucel (hydroxypropylcellulose) (HPC) 93 % of control | [17] 87 % of control | dose: 25.0 mg/kg/injection, schedule: Q04DX003 (ip), vehicle: Klucel (hydroxypropylcellulose) (HPC) 96 % of control | [18] 88 % of control | dose: 50.0 mg/kg/injection, schedule: Q04DX003 (ip), vehicle: Klucel (hydroxypropylcellulose) (HPC) 88 % of control | [4] 93 % of control | [11] 96 % of control | [5] 92 % of control | [13] 98 % of control | [6] 95 % of control | [15] 102 % of control

O=C(Nc1ccccc1F)C(Br)C(Br)c1ccccc1 (stereo not drawn)
inactive: [4] 92 % of control | [5] 100 % of control | [6] 96 % of control

CC(=O)Nc1ccc(C)c2ccccc12
inactive: dose: 50.0 mg/kg/injection, schedule: Q04DX003 (ip), vehicle: saline with Tween-80 116 % of control | [1] 100 % of control | [2] 100 % of control | [3] 96 % of control

CN1CN(c2ccccc2)C2(CCN(CCCC3Cc4ccccc4O3)CC2)C1=O (stereo not drawn)
inactive: dose: 12.0 mg/kg/injection, schedule: Q01DX001 (ip), vehicle: Klucel (hydroxypropylcellulose) (HPC) 95 % of control | [19] 98 % of control | [20] 96 % of control

COc1ccc(C)cc1NC(=O)OCCOc1ccc(Br)cc1
inactive: dose: 50.0 mg/kg/injection, schedule: Q01DX009 (ip), vehicle: saline with Tween-80 90 % of control | dose: 100.0 mg/kg/injection, schedule: Q01DX009 (ip), vehicle: saline with Tween-80 97 % of control | dose: 200.0 mg/kg/injection, schedule: Q01DX009 (ip), vehicle: saline with Tween-80 87 % of control
